{"source": "paper PMC11801715", "about": "“Activating PKC-ε induces HIV expression with improved tolerability” (PLOS Pathogens, 2025)", "key": {"PKC-β1": {"molecular_target": "PKC-β1 (Homo sapiens, UniProt P05771)", "sequence (P05771 whole entry, canonical isoform)": "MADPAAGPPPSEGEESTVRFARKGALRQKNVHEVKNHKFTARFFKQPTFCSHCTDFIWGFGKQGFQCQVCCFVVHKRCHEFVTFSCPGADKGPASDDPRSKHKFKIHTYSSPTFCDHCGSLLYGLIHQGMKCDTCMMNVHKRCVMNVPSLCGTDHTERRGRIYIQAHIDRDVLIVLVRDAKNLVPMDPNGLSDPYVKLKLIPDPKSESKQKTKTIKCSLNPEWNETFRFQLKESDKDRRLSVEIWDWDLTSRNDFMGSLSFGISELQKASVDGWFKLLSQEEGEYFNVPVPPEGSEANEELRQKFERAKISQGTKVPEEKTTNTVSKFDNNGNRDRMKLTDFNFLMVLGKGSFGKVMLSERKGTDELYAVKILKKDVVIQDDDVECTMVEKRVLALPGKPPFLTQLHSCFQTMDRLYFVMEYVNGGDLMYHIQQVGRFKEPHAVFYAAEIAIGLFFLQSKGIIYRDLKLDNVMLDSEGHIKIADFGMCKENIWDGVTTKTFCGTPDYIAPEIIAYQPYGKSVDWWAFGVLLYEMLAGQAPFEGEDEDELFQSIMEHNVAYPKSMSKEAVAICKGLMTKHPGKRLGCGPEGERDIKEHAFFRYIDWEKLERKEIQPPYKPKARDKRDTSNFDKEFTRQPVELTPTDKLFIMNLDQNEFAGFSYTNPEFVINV", "assay": "Z'-LYTE kinase activity assay", "type": "biochemical", "conditions": "ATP at Kmapp, 2 μM peptide substrate; read-out: IC50 for classical PKC isoforms, PKC-β1", "from_the_text": "(§1) In this assay, phosphorylation of a synthetic FRET-peptide substrate protects the peptide from cleavage by the development reagent and prevents disruption of the FRET signal."}, "PKC-ε": {"molecular_target": "T1, PKC-ε (Homo sapiens, UniProt Q02156)", "T1 sequence (Q02156 1-737)": "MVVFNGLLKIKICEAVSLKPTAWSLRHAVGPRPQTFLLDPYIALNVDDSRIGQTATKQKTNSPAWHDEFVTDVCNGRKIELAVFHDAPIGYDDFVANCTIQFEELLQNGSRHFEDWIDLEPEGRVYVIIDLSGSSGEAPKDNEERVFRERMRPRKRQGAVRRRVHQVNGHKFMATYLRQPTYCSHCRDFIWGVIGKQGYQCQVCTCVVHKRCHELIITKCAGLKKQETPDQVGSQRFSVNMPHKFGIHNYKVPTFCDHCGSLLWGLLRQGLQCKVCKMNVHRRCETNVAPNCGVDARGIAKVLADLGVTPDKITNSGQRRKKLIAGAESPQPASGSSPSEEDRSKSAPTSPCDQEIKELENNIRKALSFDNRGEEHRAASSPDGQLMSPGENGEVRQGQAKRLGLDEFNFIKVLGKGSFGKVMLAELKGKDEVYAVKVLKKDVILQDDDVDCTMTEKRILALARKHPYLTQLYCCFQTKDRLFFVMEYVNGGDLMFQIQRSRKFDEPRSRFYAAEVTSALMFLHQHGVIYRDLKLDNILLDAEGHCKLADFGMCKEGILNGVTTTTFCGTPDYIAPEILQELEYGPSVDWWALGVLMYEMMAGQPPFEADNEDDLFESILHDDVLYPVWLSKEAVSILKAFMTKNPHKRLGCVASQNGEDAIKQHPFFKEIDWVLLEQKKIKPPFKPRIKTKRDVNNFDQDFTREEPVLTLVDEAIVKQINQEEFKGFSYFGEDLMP", "assay": "Z'-LYTE kinase activity assay", "type": "biochemical", "from_the_text": "as §1"}, "PKC-β2": {"molecular_target": "PKC-β2 (Homo sapiens, UniProt P05771)", "sequence (P05771 1-673 isoform P05771-2)": "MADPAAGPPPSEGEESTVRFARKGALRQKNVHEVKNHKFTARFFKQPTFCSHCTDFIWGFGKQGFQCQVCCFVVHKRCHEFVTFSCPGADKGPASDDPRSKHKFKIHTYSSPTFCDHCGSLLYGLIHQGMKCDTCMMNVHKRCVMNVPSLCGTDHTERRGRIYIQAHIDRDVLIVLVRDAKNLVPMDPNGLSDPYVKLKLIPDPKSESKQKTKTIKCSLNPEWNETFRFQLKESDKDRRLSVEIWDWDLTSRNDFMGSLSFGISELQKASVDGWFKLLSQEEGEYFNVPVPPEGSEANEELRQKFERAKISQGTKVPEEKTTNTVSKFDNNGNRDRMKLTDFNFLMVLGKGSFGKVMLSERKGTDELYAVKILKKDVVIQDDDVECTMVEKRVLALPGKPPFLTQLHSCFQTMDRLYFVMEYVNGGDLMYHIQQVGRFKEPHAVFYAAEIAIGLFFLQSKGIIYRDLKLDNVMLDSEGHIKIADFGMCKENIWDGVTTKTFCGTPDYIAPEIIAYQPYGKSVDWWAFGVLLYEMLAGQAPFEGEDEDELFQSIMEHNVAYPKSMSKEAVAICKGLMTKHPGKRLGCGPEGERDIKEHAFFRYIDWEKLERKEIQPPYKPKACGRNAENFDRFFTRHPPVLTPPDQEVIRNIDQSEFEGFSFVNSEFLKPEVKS", "assay": "Z'-LYTE kinase activity assay", "type": "biochemical", "conditions": "ATP at Kmapp, 2 μM peptide substrate; read-out: IC50 for classical PKC isoforms, PKC-β2", "from_the_text": "as §1"}, "PKC-δ": {"molecular_target": "PKC-δ (Homo sapiens, UniProt Q05655)", "sequence (Q05655 whole entry, canonical isoform)": "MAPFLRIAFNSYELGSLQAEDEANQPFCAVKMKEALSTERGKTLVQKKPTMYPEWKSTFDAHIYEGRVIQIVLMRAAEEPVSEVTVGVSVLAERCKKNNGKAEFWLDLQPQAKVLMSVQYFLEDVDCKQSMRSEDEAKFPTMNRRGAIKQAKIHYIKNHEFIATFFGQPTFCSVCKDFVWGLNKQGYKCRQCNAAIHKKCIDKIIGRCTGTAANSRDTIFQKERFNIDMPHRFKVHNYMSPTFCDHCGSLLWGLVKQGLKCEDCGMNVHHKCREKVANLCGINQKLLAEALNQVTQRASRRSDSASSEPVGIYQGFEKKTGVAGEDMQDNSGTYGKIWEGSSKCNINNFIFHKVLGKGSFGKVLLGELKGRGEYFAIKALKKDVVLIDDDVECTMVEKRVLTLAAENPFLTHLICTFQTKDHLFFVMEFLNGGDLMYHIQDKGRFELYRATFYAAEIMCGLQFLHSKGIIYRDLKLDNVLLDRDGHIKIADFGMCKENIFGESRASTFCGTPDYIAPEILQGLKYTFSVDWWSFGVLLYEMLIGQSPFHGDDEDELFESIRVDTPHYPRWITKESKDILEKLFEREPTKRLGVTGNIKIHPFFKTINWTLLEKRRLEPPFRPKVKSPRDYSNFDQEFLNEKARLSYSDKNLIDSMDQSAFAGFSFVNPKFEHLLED", "assay": "Z'-LYTE kinase activity assay", "type": "biochemical", "conditions": "ATP at Kmapp, 2 μM peptide substrate; read-out: IC50 for novel PKC isoforms, PKC-δ", "from_the_text": "as §1"}, "PKC-θ": {"molecular_target": "PKC-θ (Homo sapiens, UniProt Q04759)", "sequence (Q04759 whole entry, canonical isoform)": "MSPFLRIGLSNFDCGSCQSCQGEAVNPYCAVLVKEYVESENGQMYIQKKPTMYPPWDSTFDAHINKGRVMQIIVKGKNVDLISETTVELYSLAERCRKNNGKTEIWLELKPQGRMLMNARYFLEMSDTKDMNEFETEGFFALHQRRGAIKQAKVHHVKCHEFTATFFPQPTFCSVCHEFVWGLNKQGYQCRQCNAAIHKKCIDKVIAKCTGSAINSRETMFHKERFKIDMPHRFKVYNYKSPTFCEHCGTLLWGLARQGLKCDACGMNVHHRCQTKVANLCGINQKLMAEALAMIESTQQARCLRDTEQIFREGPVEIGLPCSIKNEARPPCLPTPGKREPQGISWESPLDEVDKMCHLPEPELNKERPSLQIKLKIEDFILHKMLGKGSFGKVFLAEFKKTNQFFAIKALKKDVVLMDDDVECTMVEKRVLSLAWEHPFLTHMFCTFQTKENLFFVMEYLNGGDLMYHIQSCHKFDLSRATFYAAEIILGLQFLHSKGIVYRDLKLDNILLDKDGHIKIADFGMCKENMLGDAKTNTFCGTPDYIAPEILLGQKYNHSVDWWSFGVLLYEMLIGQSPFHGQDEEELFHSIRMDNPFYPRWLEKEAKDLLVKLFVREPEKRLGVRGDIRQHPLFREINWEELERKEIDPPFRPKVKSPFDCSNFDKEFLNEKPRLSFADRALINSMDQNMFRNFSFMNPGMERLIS", "assay": "Z'-LYTE kinase activity assay", "type": "biochemical", "conditions": "ATP at Kmapp, 2 μM peptide substrate; read-out: IC50 for novel PKC isoforms, PKC-θ", "from_the_text": "as §1"}, "PKC-γ": {"molecular_target": "PKC-γ (Homo sapiens, UniProt P05129)", "assay": "Z'-LYTE kinase activity assay", "type": "biochemical", "conditions": "ATP at Kmapp, 2 μM peptide substrate; read-out: IC50 for classical PKC isoforms, PKC-γ", "from_the_text": "as §1"}, "PKC-α": {"molecular_target": "PKC-α (Homo sapiens, UniProt P17252)", "assay": "Z'-LYTE kinase activity assay", "type": "biochemical", "conditions": "ATP at Kmapp, 2 μM peptide substrate; read-out: IC50 for classical PKC isoforms, PKC-α", "from_the_text": "as §1"}, "PKC-η": {"molecular_target": "PKC-η (Homo sapiens, UniProt P24723)", "sequence (P24723 whole entry, canonical isoform)": "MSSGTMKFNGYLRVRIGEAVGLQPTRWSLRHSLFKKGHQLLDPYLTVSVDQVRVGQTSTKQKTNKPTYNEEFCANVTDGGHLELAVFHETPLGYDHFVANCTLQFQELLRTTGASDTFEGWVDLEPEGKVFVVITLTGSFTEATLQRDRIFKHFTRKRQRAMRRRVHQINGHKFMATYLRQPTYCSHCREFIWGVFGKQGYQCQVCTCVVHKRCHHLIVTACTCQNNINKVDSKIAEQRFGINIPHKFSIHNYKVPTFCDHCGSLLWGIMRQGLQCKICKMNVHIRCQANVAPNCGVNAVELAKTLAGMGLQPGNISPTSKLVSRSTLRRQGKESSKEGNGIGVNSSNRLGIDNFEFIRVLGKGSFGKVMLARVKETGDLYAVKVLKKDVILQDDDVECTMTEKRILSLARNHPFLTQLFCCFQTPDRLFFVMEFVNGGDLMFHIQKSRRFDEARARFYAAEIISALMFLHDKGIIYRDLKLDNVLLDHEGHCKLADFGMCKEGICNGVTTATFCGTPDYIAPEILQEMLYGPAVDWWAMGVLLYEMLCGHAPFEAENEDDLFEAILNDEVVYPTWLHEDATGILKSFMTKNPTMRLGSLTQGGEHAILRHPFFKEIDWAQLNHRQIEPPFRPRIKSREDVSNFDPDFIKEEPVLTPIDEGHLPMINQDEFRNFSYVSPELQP", "assay": "Z'-LYTE kinase activity assay", "type": "biochemical", "conditions": "ATP at Kmapp, 2 μM peptide substrate; read-out: IC50 for novel PKC isoforms, PKC-η", "from_the_text": "as §1"}, "[1]": {"assay": "Free fraction in cell culture media", "type": "in vitro ADME"}, "[2]": {"test_system": "classical and novel PKC isoforms", "assay": "Estimated PKC inhibition in cell culture from Z'-LYTE IC50 and free fraction", "type": "biochemical", "conditions": "5 µM, 46% free in cell culture media", "from_the_text": "as §1"}, "[3]": {"test_system": "latent HIV in total CD4+ T cells", "assay": "microbe, parasite or virus in culture", "type": "cell-based, HIV-1", "conditions": "inhibitor 5 μM with DMSO, no agonist", "method": "Peripheral blood mononuclear cells and CD4^+ T cells used for evaluating PKC agonist and inhibitor molecules were isolated from leukopaks of selected participants as described previously. Isolated CD4^+ T cells (5×10^6 cells/well) were added to 24-well tissue culture plates in 2.5 mL of RPMI medium containing 100 nM each of elvitegravir and efavirenz. Cells were stimulated with DMSO (vehicle control) or the indicated concentrations of PKC agonist molecules. Cells were pretreated with PKC isoform inhibitors (Selleck Chemicals) for 1 hour before addition of PKC agonist at indicated concentrations and maintained at 37 °C, 5% CO2 for 3 days. Cell supernatants from each well were analyzed using the Cobas […] system for quantification of HIV-1 RNA using the HIV-1 test v2.0 kit (Roche Diagnostics)."}}, "data": [{"smiles": "CN(C)CCCn1cc(C2=C(c3c[nH]c4ccccc34)C(=O)NC2=O)c2ccccc21", "note": "[Gӧ-6850]", "values": [{"measurement": "IC50", "setting": "PKC-β1", "result": 0.457, "unit": "nM"}, {"measurement": "inhibition at 5 µM", "setting": "PKC-ε; 5 µM, 46% free in cell culture media, read-out: estimated inhibition of PKC-ε", "result": 70, "unit": "%"}, {"measurement": "IC50", "setting": "PKC-ε; ATP at Kmapp, 2 μM peptide substrate, read-out: IC50 for novel PKC isoforms, PKC-ε", "result": 67.6, "unit": "nM"}, {"measurement": "IC50", "setting": "PKC-β2", "result": 0.331, "unit": "nM"}, {"measurement": "IC50", "setting": "PKC-δ", "result": 9.63, "unit": "nM"}, {"measurement": "IC50", "setting": "PKC-θ", "result": 3, "unit": "nM"}, {"measurement": "IC50", "setting": "PKC-γ", "result": 2.18, "unit": "nM"}, {"measurement": "IC50", "setting": "PKC-α", "result": 2.53, "unit": "nM"}, {"measurement": "IC50", "setting": "PKC-η", "result": 11.3, "unit": "nM"}, {"measurement": "free in cell culture media", "setting": "[1]", "result": 46, "unit": "%"}, {"measurement": "estimated inhibition of all classical and novel isoforms, except PKC-ε", "setting": "[2]", "result": "> 90", "unit": "%"}, {"measurement": "HIV RNA Fold∆ over DMSO, Geomean", "setting": "[3]", "result": 1.2, "unit": "fold"}]}]}
